What was measured:
[1] = system: normal human fibroblasts (CCD37); test: normal human fibroblasts (CCD37), competitive RT-PCR and VEGF165 ELISA; assay type: cell-based
Experimental: To determine if hedgehog can directly induce fibroblasts to produce VEGF or other angiogenic factors, we treated normal human fibroblasts (CCD37) with Myr-Shh and the ability of fibroblasts to respond was evaluated by competitive RT-PCR for ptc 1 and several angiogenic growth factors. Total RNA was prepared from cells treated as described above using Trizol (Life Technologies, Rockville, Md.). Four micrograms of total RNA was used to prepare cDNA using the SuperScriptTM preamplification system (Cat. No. 18089-011, Life Technologies, Rockville, Md.). The PCR reaction using buffer reagents from the SuperScriptTM preamplification system (Life Technologies, Rockville, Md.) was quantitated with […] competitive primers (Ambion). Primers for the amplification of Ptc 1 were [NT] ID NO: 38) and [NT] ID NO: 39) which are based on ptc1 cDNA sequence (GenBank Accession Number U46155). All amplification for Ptc1 were done with 25 cycles of 94° C. for 30 sec; 55° C. for 1 min; 72° C. for 1 min. The cDNA from the same cells was also used as a template for VEGF, bFGF, Angiopoietin 1, and Angiopoietin II amplification. The following primer pairs and PCR cycles were used: […] [NT] ID NO: 40) and [NT] ID NO: 41) which are based on the human VEGF cDNA sequence (GenBank Accession Number E15157). VEGF product was amplified with 30 cycles of 94° C. for 30 sec; 62° C. for 1 min; 72° C. for 1 min; bFGF: [NT] ID NO: 42) and [NT] ID NO: 43) which is based on the human bFGF cDNA sequence (GenBank Accession Number M27968). bFGF product was amplified with 25 cycles of 94° C. for 30 sec; 62° C. for 1 min; 72° C. for 1 min; Angiopoietin I [NT] ID NO: 44) and [NT] ID NO: 45) which is based on human Angiopoietin I cDNA sequence (GenBank Accession Number U83508). Angiopoietin I product was amplified with 25 cycles of 94° C. for 30 sec; 64° C. for 90 sec; Angiopoietin II: [NT] ID NO:46) and [NT] ID NO: 47) which are based on human Angiopoietin II cDNA sequence (GenBank Accesion Number AB009865). Angiopoietin II product was amplified with 32 cycles of 94° C. for 30 sec; 64° C. for 90 sec. As internal control for sample preparation, gel loading, and random variations in RT-PCR, 18S rRNA primers and 18S rRNA competimers (Ambion, Austin, Tex.), used to modify 18S cDNA amplification efficiency, were included in each PCR reaction with target gene-specific primers. The linear range of amplification and optimal 18S primer/Competimer ratio was determined for each target gene following the manufacturer's recommendations (Ambion, Austin, Tex.). […] VEGF 121, 165, and 189 upregulation began at 12 hours and was maximal after 48 hours of incubation of the cells with Shh. […] Cells were stimulated with recombinant human myristolated Shh protein as described above. At harvest, the cell conditioned media was collected, centrifuged to remove cell debris (15 minutes at 1500×g) and production of VEGF165 protein was evaluated by using an ELISA kit (Quantikine human VEGF, R&D Systems, Minneapolis, Minn.).

[2] = system: vascular smooth muscle cells (PAC 1), normal human lung fibroblasts, normal prostate stromal cells; test: ptc 1 RT-PCR in smooth muscle cells, lung fibroblasts and prostate stromal cells; assay type: cell-based; details: 1 ug/ml for 2 days, vs vehicle
Experimental: Eighty five percent confluent monolayers of vascular smooth muscle cells (PAC 1) were induced for 2 days with 1 ug/ml of myrShh or an equivalent volume of vehicle in normal media (M 199 complete media with 10% fetal bovine serum). For comparison, primary normal human lung fibroblasts and normal prostate stromal cells were grown in complete FBM and similarly stimulated (Clonetics/Bio-Whittaker, Walkersville, Md.). The cells were harvested and RNA from the cells was prepared and analysed by RT-PCR as above. […] In addition, hedgehog protein induced DNA synthesis in quiescent vascular SMCs and human fibroblasts. PAC-1 (Rothman et al., 1992), WKY (Lemire et al., 1994), primary pulmonary artery SMCs or aortic SMCs (Clonetics/Bio-Whittaker, Walkersville, Md.) were plated (5×10^3/well) in 96 well plates and allowed to adhere for 2-3 hours in 0.18 ml of complete media (M 199 with 10% fetal bovine serum for PAC 1 cells, DMEM with 10% fetal bovine serum for WKY cells or smGM-2 for primary human pulmonary artery or aortic SMCs). The cells were then starved for 18-24 hours in complete media with 0.5% fetal bovine serum. […] 3H-thymidine uptake into cells was determined by scintillation counting using a 1205 Betaplate counter (Wallac, Gaithersburg, Md.).

[3] = system: human umbilical vein and microvascular endothelial cells; test: response of endothelial cells to Hh; assay type: cell-based
mouse cornea = test: mouse corneal pocket model of angiogenesis; assay type: in vivo
Experimental: To confirm the angiogenic activity of hedgehog in another well accepted model of angiogenesis, we tested the ability of hedgehog protein to induce neovascularization in the mouse corneal model pocket model of angiogenesis.
Animals were anesthetized by pentobarbital intraperitoneal injection (160 mg/kg). Corneal pockets were created in the eyes of each mouse and a 0.34×0.34 mm sucrose albumin sulfate (Bukh Meditec, Vaerlose, DK) pellet coated with hydron polymer type NCC (Interferon Sciences, New Brunswick, N.J.) containing 1 of the agents indicated below was implanted into the corneal pocket. […] mice were divided into 5 groups: control buffer alone; VEGF 300 ng/pellet; Myr-Shh vehicle alone; Myr-Shh 1.5 microg/pellet […]; Myr-Shh+VEGF (1.5 microg/pellet +300 ng/pellet, respectively). Pellets were positioned 1.0 mm from the corneal limbus, and erythromycin ophthalmic ointment (E. Fourera) was applied to each operated eye. The corneas of all mice were routinely examined by slit-lamp biomicroscopy on postoperative day 6 after pellet implantation.
On the same day vessel length and corneal circumferential neovascularity (in degrees) were measured. After completing these measurements, C57BL/6J mice received an intravenous injection of […] of BS-1 lectin FITC-conjugated (Vector Laboratories, Burlingame, Calif.). Thirty minutes later, the animals were sacrificed. The eyes were enucleated and fixed in 1% paraformaldehyde solution. After fixation, the corneas were placed on glass slides and examined by fluorescence microscopy.
To determine the mechanism by which Shh induces angiogenesis both Shh and VEGF-stimulated corneas (see Example 3) were excised and X-gal stained as described in Example 1 after fixation of the whole eye for 1 hour in 1% paraformaldehyde followed by enucleation and fixation of the corneal hemisphere in 1% paraformaldehyde for 30 minutes. […] Endothelial cell immunostaining was done with a rat monoclonal antibody against mouse CD-31 (Pharmigen, San Diego, Calif.) followed by a biotinylated goat anti-rat immunoglobulin secondary antibody. Smooth muscle cells and pericytes were identified with a mouse monoclonal antibody against SM a-actin conjugated with alkaline-phosphatase (Sigma, St. Louis, Mo.) and fibroblasts were identified using an anti-vimentin antibody (Sigma, St. Louis, Mo.).
We then immunostained the Shh-induced corneas with a rabbit polyclonal anti-VEGF antibody (Santa Cruz Biotechnology, Santa Cruz, Calif.) with a biotinylated goat anti-rabbit immunoglobulin as secondary antibody.

[4] = system: Shh signaling pathway in MEFs homozygous for ptc-lacZ (cell line 23-1); test: β-galactosidase activity in ptc-lacZ homozygous mouse embryonic fibroblasts; assay type: cell-based; details: normalized to whole protein content
Text: These studies involve the use of mouse embryonic fibroblasts (MEFs) that were generated by trypsin digestion of E8.5 embryos from patched (ptc) ±matings. […] Thus, in these ptc−/− embryos, the Shh signaling pathway is activated in many tissues, and the lacZ gene product β-galactosidase is expressed in all of those tissues as a report of pathway activation.
The Shh signaling pathway can be activated in these fibroblasts in cell culture, and that the level of β-galactosidase activity does reflect the degree of pathway activation. The MEF line 23-4 is heterozygous for ptc-lacZ, and thus contains one functional ptc allele capable of maintaining a repressed state of the pathway, but will express lacZ when the pathway is activated by addition of Shh protein.

[5] = pellet: Myr-Shh 1.5 microg or VEGF 300 ng

Myr-Shh: recombinant human myristolated Shh protein (myristylated Sonic hedgehog)
start of VEGF 121, 165 and 189 upregulation [1]: 12 h | time of maximal VEGF 121, 165 and 189 upregulation [1]: 48 h | time of maximal increase of Ang-1 and Ang-2 [1]: 36 h | VEGF mRNA isoforms (VEGF121, 165, 189) ([1]; RT-PCR): strongly upregulated | bFGF mRNA ([1]; any time-points): No bFGF upregulation was detectable | VEGF production (VEGF165 protein in cell media, ELISA) ([1]; at 72 hours): significant upregulation | Ang-1 and Ang-2 mRNA ([1]; quantitative RT-PCR): upregulation of both genes | Ptc1 gene expression ([1]; time course): upregulating the Ptc1 gene | ptc 1 expression [2]: increased ptc 1 expression | response to Hh [3]: Neither human umbilical vein and microvascular endothelial cells respond | X-gal staining (Ptc 1 expression) of corneas (mouse cornea; Ptc1-lacZ corneas): strong X-gal staining | VEGF immunostaining of corneas (mouse cornea; anti-VEGF antibody): VEGF protein is in the fibroblasts and matrix immediately adjacent to the neovascular area | density of vessels (mouse cornea; compared with VEGF): slightly lower | maximum vessel lengths (mouse cornea; [5]): 1020+200 um | vessel diameters (mean) (mouse cornea; [5]): 33±17 um | neovascular growth (mouse cornea; pellet: Myr-Shh 1.5 microg or VEGF 300 ng, day 6): significant neovascular growth | vessel length, circumferential neovascularity and diameter of the lumens (mouse cornea; summary): statistically significant increase

C[C@H]1CC[C@]2(NC1)O[C@H]1C[C@H]3[C@@H]4CC[C@H]5C[C@@H](O)CC[C@]5(C)[C@H]4CC[C@]3(C)[C@H]1[C@@H]2C [tomatidine]
β-galactosidase activity [4]: cannot be achieved

Source: patent US7498304B2, “Angiogenesis-modulating compositions and uses” (Curis, Inc., priority 2002, dated 2009)
